From PMC10262918, “Stapled peptide PROTAC induced significantly greater anti-PD-L1 effects than inhibitor in human cervical cancer cells” (Frontiers in Immunology, 2023)

System: PD-L1 in C33A cells
Assay: Western blotting of PD-L1 level in C33A cells
Type: cell-based, human
Conditions: 4 h treatment, mean of 3 independent experiments, read-out: IC50 of PD-L1 decrease
Procedure: C33A and HeLa cells were plated in 6-well plates and treated with the stapled peptide at the indicated concentrations for the specified time, followed by lysis in RIPA buffer containing protease inhibitor. Protein samples were prepared using a BCA Protein Assay Kit (Beyotime). A total of 50 µg of protein were added per lane, separated by 10% SDS-PAGE, and subsequently transferred onto polyvinylidene fluoride (PVDF) membrane. The membrane was blocked with 5% skimmed milk for 2 h at room temperature. Primary antibodies including anti-PD-L1 (Abcam, ab213524) and anti-GAPDH (Abcam, ab9485) antibodies were diluted in primary antibody dilution buffer (Biosharp) and incubated with PVDF membrane at 4°C overnight. Next, the membrane was incubated with goat anti-mouse/anti-rabbit secondary antibodies (Proteintech, SA00001-1, SA00001-2) at room temperature for 1 h. After washing with TBST thrice for 5 min each, the proteins were detected using enhanced chemiluminescence (ECL) reagents (Vazyme) and a ChemiDoc XRS imaging system (Bio-Rad Laboratories).

IC50: 7.79 µM
Structure (SMILES): Cc1c(COc2ccc(CN3CCCCC3C(=O)O)cc2Br)cccc1-c1ccccc1 (stereo not shown) [BMS-8]
